From the NIST ThermoML archive (doi:10.1021/je900387e)
Numbers after ± are expanded uncertainties.

Experiment: xn = mol fraction of the nth substance listed
Conditions: Liquid, Pycnometric method

CCCCCl [1-chlorobutane] + O=C=O
Conditions | mass density [kg/m3]
324 K, 13450 kPa, x1 = 0.0483 | 758 ± 4
324 K, 13950 kPa, x1 = 0.0483 | 768 ± 4
324 K, 14450 kPa, x1 = 0.0483 | 778 ± 4
324 K, 15020 kPa, x1 = 0.0483 | 788 ± 4
327.6 K, 8120 kPa, x1 = 0.0243 | 244 ± 4
327.6 K, 8180 kPa, x1 = 0.0243 | 249 ± 4
327.6 K, 8250 kPa, x1 = 0.0243 | 253 ± 4
327.6 K, 8320 kPa, x1 = 0.0243 | 258 ± 4
327.6 K, 8390 kPa, x1 = 0.0243 | 263 ± 4
327.6 K, 8460 kPa, x1 = 0.0243 | 268 ± 4
327.6 K, 8480 kPa, x1 = 0.1488 | 758 ± 4
327.6 K, 8520 kPa, x1 = 0.0243 | 274 ± 4
327.6 K, 8590 kPa, x1 = 0.0243 | 279 ± 4
327.6 K, 8670 kPa, x1 = 0.0243 | 285 ± 4
327.6 K, 8710 kPa, x1 = 0.1488 | 762 ± 4
327.6 K, 8750 kPa, x1 = 0.0243 | 291 ± 4
327.6 K, 8820 kPa, x1 = 0.0243 | 298 ± 4
327.6 K, 8880 kPa, x1 = 0.0243 | 304 ± 4
327.6 K, 8920 kPa, x1 = 0.0981 | 692 ± 4
327.6 K, 8920 kPa, x1 = 0.1488 | 766 ± 4
327.6 K, 8950 kPa, x1 = 0.0243 | 311 ± 4
327.6 K, 9040 kPa, x1 = 0.0243 | 318 ± 4
327.6 K, 9050 kPa, x1 = 0.0981 | 698 ± 4
327.6 K, 9110 kPa, x1 = 0.0243 | 326 ± 4
327.6 K, 9140 kPa, x1 = 0.1488 | 770 ± 4
327.6 K, 9180 kPa, x1 = 0.0243 | 334 ± 4
327.6 K, 9200 kPa, x1 = 0.0981 | 704 ± 4
327.6 K, 9270 kPa, x1 = 0.0243 | 343 ± 4
327.6 K, 9350 kPa, x1 = 0.0243 | 352 ± 4
327.6 K, 9360 kPa, x1 = 0.0981 | 711 ± 4
327.6 K, 9370 kPa, x1 = 0.1488 | 774 ± 4
327.6 K, 9410 kPa, x1 = 0.0243 | 359 ± 4
327.6 K, 9410 kPa, x1 = 0.0483 | 469 ± 4
327.6 K, 9430 kPa, x1 = 0.0483 | 473 ± 4
327.6 K, 9460 kPa, x1 = 0.0243 | 364 ± 4
327.6 K, 9470 kPa, x1 = 0.0483 | 480 ± 4
327.6 K, 9520 kPa, x1 = 0.0483 | 487 ± 4
327.6 K, 9530 kPa, x1 = 0.0981 | 718 ± 4
327.6 K, 9570 kPa, x1 = 0.0483 | 494 ± 4
327.6 K, 9600 kPa, x1 = 0.1488 | 778 ± 4
327.6 K, 9620 kPa, x1 = 0.0483 | 502 ± 4
327.6 K, 9670 kPa, x1 = 0.0483 | 510 ± 4
327.6 K, 9730 kPa, x1 = 0.0483 | 518 ± 4
327.6 K, 9730 kPa, x1 = 0.0981 | 725 ± 4
327.6 K, 9790 kPa, x1 = 0.0483 | 526 ± 4
327.6 K, 9850 kPa, x1 = 0.1488 | 781 ± 4
327.6 K, 9860 kPa, x1 = 0.0483 | 535 ± 4
327.6 K, 9930 kPa, x1 = 0.0483 | 544 ± 4
327.6 K, 9940 kPa, x1 = 0.0981 | 731 ± 4
327.6 K, 10010 kPa, x1 = 0.0483 | 553 ± 4
327.6 K, 10090 kPa, x1 = 0.0483 | 562 ± 4
327.6 K, 10110 kPa, x1 = 0.1488 | 785 ± 4
327.6 K, 10190 kPa, x1 = 0.0483 | 572 ± 4
327.6 K, 10200 kPa, x1 = 0.0981 | 739 ± 4
327.6 K, 10290 kPa, x1 = 0.0483 | 582 ± 4
327.6 K, 10410 kPa, x1 = 0.0483 | 593 ± 4
327.6 K, 10410 kPa, x1 = 0.1488 | 790 ± 4
327.6 K, 10450 kPa, x1 = 0.0981 | 746 ± 4
327.6 K, 10540 kPa, x1 = 0.0483 | 604 ± 4
327.6 K, 10690 kPa, x1 = 0.0483 | 615 ± 4
327.6 K, 10720 kPa, x1 = 0.1488 | 794 ± 4
327.6 K, 10770 kPa, x1 = 0.0981 | 754 ± 4
327.6 K, 10810 kPa, x1 = 0.0483 | 623 ± 4
327.6 K, 10910 kPa, x1 = 0.0483 | 629 ± 4
327.6 K, 11000 kPa, x1 = 0.0483 | 635 ± 4
327.6 K, 11050 kPa, x1 = 0.1488 | 798 ± 4
327.6 K, 11060 kPa, x1 = 0.0483 | 639 ± 4
327.6 K, 11110 kPa, x1 = 0.0981 | 761 ± 4
327.6 K, 11140 kPa, x1 = 0.0483 | 644 ± 4
327.6 K, 11220 kPa, x1 = 0.0483 | 648 ± 4
327.6 K, 11380 kPa, x1 = 0.1488 | 802 ± 4
327.6 K, 11460 kPa, x1 = 0.0981 | 769 ± 4
327.6 K, 11770 kPa, x1 = 0.1488 | 806 ± 4
327.6 K, 11880 kPa, x1 = 0.0981 | 777 ± 4
327.6 K, 12150 kPa, x1 = 0.1488 | 811 ± 4
327.6 K, 12330 kPa, x1 = 0.0981 | 785 ± 4
327.6 K, 12530 kPa, x1 = 0.1488 | 815 ± 4
327.6 K, 12830 kPa, x1 = 0.0981 | 792 ± 4
327.6 K, 12950 kPa, x1 = 0.1488 | 819 ± 4
327.6 K, 13400 kPa, x1 = 0.1488 | 823 ± 4
327.6 K, 13410 kPa, x1 = 0.0981 | 802 ± 4
327.6 K, 13890 kPa, x1 = 0.1488 | 828 ± 4
327.6 K, 14220 kPa, x1 = 0.0981 | 813 ± 4
327.6 K, 14350 kPa, x1 = 0.1488 | 832 ± 4
327.6 K, 14900 kPa, x1 = 0.1488 | 837 ± 4
